Measurements published in patent publication US9408811B2, “Pharmaceutical composition comprising guttiferone F for the treatment of prostate cancer” (Hong Kong Baptist University, priority 2013, dated 2016).

Assays:
PC3 cells [1] = experiment: PC3 xenograft BALB/c nude mice, intraperitoneal GF with or without caloric restriction; assay type: in vivo; details: i.p. 20 mg/kg normally fed, or 10 mg/kg with caloric restriction, versus control; FIG. 6, p<0.01
Protocol: Four-week-old male BALB/c nude mice from the Experimental Animal Center of Chinese Academy of Science (Shanghai, China) are used in this example. Approximately 1×10^6 PC3 cells suspended in 100 μl of PBS and 100 μl of Matrigel are injected subcutaneously into the right side of the animals. One week later, 28 mice bearing tumors around 50 mm^3 in volume are randomly divided into four groups (n=7 per group): Group 1: Control (normally fed, receiving daily i.p. vehicle), Group 2: Caloric restriction (fed with 70% of their normal food intake, receiving daily i.p. vehicle), Group 3: GF (normally fed, receiving daily i.p. 20 mg/kg of GF), and Group 4: GF+caloric restriction (calorie-restricted mice receiving daily i.p. 10 mg/kg of GF). Mice are administered via intraperitoneal injection of vehicle (control) in a form of solvent (0.5% DMSO, 0.5% Tween-80 in saline) and GF at the dose of 10 mg/kg or 20 mg/kg in 200 μl vehicle once every other day. […] Using the conversion formula between animal dose and human dose taught in Regan-Shaw et al. (2007), the daily human dose of GF through intraperitoneal injection is about 1.62 mg/kg to 2.4 mg/kg (corresponding to 20 mg/kg of GF for mouse); the daily human dose of GF under calorie restriction is at least in a range of 0.81 mg/kg to 1.2 mg/kg (corresponding to 10 mg/kg of GF for mouse).

LNCaP = experiment: MTT cytotoxic assay, LNCaP; assay type: cell-based, human
Protocol: (§1) Two human prostate cancer cell lines LNCaP and PC3 are maintained in RPMI1640 (Sigma Chemical Company, St. Louis, Mo., USA) supplemented with 10% fetal bovine serum (HyClone). Hepatocellular carcinoma cell line Hep G2, epithelial cervical cancer cell line HeLa and nasopharyngeal carcinoma cell line CNE are maintained in DMEM (Invitrogen) supplemented with 10% new-born calf serum (Gibco), 100 U/ml penicillin and 100 μg/ml streptomycin (Invitrogen). All cancer cells are maintained in a humidified atmosphere containing 5% CO2 at 37° C.
(§2) Different cancer cells are seeded in a 96-well plate and pre-incubated for 24 hours before treatment with Guttiferone F (0-50 μM). After 48 h of treatment, 10 μl of MTT solution (5 mg/ml) (Sigma Chemical Company, St. Louis, Mo., USA) are added to each well and incubated for 4 h. The resulting crystals are dissolved in DMSO. The controls include native cells and medium only. The spectrophotometric absorbance at 570 nm is measured using a microplate reader (Synergy HT, Bio-Tek Instruments Inc., Winooski, Vt., USA). The percentage cytotoxicity is calculated by the formula: Percentage cytotoxicity (cell death)=[1-(absorbance of experimental wells/absorbance of control wells)]×100%.

PC3 cells [2] = experiment: PC3 xenograft nude mouse model B, intraperitoneal injection 10 mg/kg; assay type: in vivo, nude mice; details: intraperitoneal injection 10 mg/kg every two days for 18 days; FIG. 5
Protocol: A total of 1×10^6 PC3 cells suspended in 100 μl of PBS and 100 μl of Matrigel are inoculated subcutaneously into the right flank of […] 4-week-old male nude mice. Drug injections are made once the tumors reach an average volume of about 200 mm^3. Mice are divided randomly into two groups of 7 for each group and subjected to intraperitoneal injection of vehicle or 10 mg/kg Guttiferone F every two days for 18 days. Tumor volume is measured by calipers and calculated by V=L×W^2/2. For intratumoral injection, Guttiferone F is prepared in 5% dimethyl sulfoxide, 5% tween 80, and 90% PBS.

PC3 cells [3] = experiment: PC3 xenograft nude mouse model A, intratumoral injection; assay type: in vivo, nude mice; details: intratumoral injection every two days for 20 days; 20 μM 3 times, then 100 μM; FIG. 4, p<0.05
Protocol: A total of 1×10^6 PC3 cells suspended in 100 μl of PBS and 100 μl of Matrigel (BD Biosciences, Bedford, Mass.) are inoculated subcutaneously (s.c.) into the right flank of six 4-week-old male nude mice. Drug injections are made once the tumors reach an average volume of about 100 mm^3. Mice are divided randomly into two groups of 3 mice in each group and subjected to intratumoral injection of vehicle (control) or […] Guttiferone F every two days for 20 days. (After 20 μM GF for 3 times, the dosage is increased to 100 μM GF). Tumor volume is measured by calipers and calculated by V=L×W^2/2 at different time intervals. For intratumoral injection, […] Guttiferone F is prepared in 5% dimethyl sulfoxide, 5% tween 80, and 90% PBS.

LNCaP cells [4] = experiment: Hoechst 33258 / MitoTracker Red confocal microscopy; assay type: cell-based, human; details: treatment for 12 h or 24 h, laser confocal microscopy
Protocol: Hoechst is depicted as blue in the first column of images while MitoTracker Red is depicted as red in the second column of images; double stain of Hoechst 33258 and MitoTacker Red is shown in the third column of images, in which the dotted square in each image represents the area where the part is enlarged; the corresponding enlarged area of the image from the third column is shown in the fourth column.
LNCaP cells (2×10^5) are seeded on 35 mm culture dish and incubated 24 h to allow attachment. After the different treatment of Guttiferone F for 12 h or 24 h, the medium is removed from the dish and the staining solution (50 μg/ml Hoechst 33258 and 1 ng/ml MitoTracker Red in PBS) is added. The fluorescence of the bound dyes is analyzed using a laser scanning confocal microscope (FV10i, Olympus Corporation, Japan).

PC-3 = experiment: MTT cytotoxic assay, PC-3; assay type: cell-based; details: Homo sapiens, 48 h of treatment
Protocol: as §1, §2

LNCaP cells [5] = experiment: Flow cytometry (PI, FACS) sub-G1 apoptosis; assay type: cell-based, human; details: 10 μM, serum-free medium, 24 h and 48 h
Protocol: Based on the result of the above MTT assay on prostate cancer cell lines, LNCaP cells and 10 μM of Guttiferone F are selected for studying the effect of Guittiferone F on apoptosis of human prostate cancer cells. Before that, LNCaP cells are treated with Guttiferone F at the concentration of 10 μM. Cells are trypsinized and fixed in ice-cold 100% methanol overnight at 4° C. Cells are washed, stained with propidium iodide (PI) for overnight, and subjected to fluorescence activated cell sorting (FACS) analysis on a FAC Scan flow cytometer (BD PharMingen, USA). Data are analyzed using the WinMID software.
To detect the apoptosis, sub-G1 phase cells were measured. Such cells are usually considered to be the result of apoptotic DNA fragmentation. The DNA is degraded by cellular endonucleases, during apoptosis. Therefore, nuclei of apoptotic cells contain less DNA than nuclei of healthy G0/G1 cells, resulting in a sub-G1 peak in the fluorescent histogram that may be used to determine the relative amount of apoptotic cells.

HeLa = experiment: MTT cytotoxic assay, HeLa; assay type: cell-based; details: Homo sapiens, 48 h of treatment
Protocol: as §1, §2

Hep G2 = experiment: MTT cytotoxic assay, Hep G2; assay type: cell-based; details: Homo sapiens, HepG2, 48 h of treatment
Protocol: as §1, §2

`C=C(C)[C@H](CC=C(C)C)C[C@@]12C[C@@H](CC=C(C)C)C(C)(C)[C@@](CC=C(C)C)(C(=O)C(C(=O)c3ccc(O)c(O)c3)=C1O)C2=O` [Guttiferone F] was tested, and the “tumor growth (tumor volume)” value (PC3 cells [1]) was “tumor growth is significantly less prominent”, the IC50 (LNCaP; Homo sapiens, LNCaP, MTT, 48 h of treatment) was 5.17 ± 0.2 µM and the “selectivity between cell lines in MTT assay” value (LNCaP; prostate cancer cell lines versus other cell lines, Table 1) was “more specific to human prostate cancer than the others”. For the same molecule, the “tumor growth (tumor volume)” value (PC3 cells [2]) was “the growth of tumor is not inhibited significantly in 18 days”, the “tumor growth (tumor volume)” value (PC3 cells [3]) was “the growth of tumor is inhibited significantly after 14 days” and the “change in mitochondria and nucleus DNA” value (LNCaP cells [4]) was “DNA fragmentation and mitochondria focus are visualized”. For the same molecule, the IC50 (PC-3) was 12.6 ± 3.01 µM, the “apoptosis (sub-G1 phase cells)” value (LNCaP cells [5]) was “induce LNCaP cell death by apoptosis significantly” and the IC50 (HeLa) was 13.1 ± 1.32 µM. It also gave an IC50 (Hep G2) of 32.9 ± 1.56 µM.
